How the values were obtained:
P-388 leukemia cells = assay: Antitumor activity: P-388 leukemia cells inoculated intraperitoneally, drug administered intravenously, BDF1 mice; assay type: in vivo; details: for response vs control in vivo at 80 mg/kg: dose f: 80 mg/kg × 3, i.v. on days 1, 5 and 9
How it was run: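 Drug dosing was intravenous on the first, fifth and ninth days after intraperitoneal inoculation of P-388 leukemia cells (1×10^6 per mouse) into BDF1 mice. Vehicles were physiological saline alone, or saline with small amounts of sodium carboxymethyl cellulose or Tween-80.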

P-388 leukemia = details: i.p. inoculation, i.p. administration; cited from earlier work
L-1210 leukemia = details: i.p. inoculation, i.p. administration; cited from earlier work
B-16 melanoma = details: i.p. inoculation, i.p. administration; cited from earlier work
cancer = details: different sites; cited from earlier work
ddY mice = assay: Acute toxicity, intravenous (once), ddY mice; assay type: in vivo; details: formulated per Preparation Example
Description: In Table 7 are shown acute toxicity values (LD50, mg/kg) in ddY mice in the case of intravenously administering (once) each of the compounds of this invention in the form of preparations shown in the Preparation Examples shown in Table 7.

[1] = Mus musculus, P388, iv, BDF1 mice, P-388 i.p., read-out: T/C (%) of MST

In the case of `CO[C@H]1[C@@H](O)[C@@H](C)O[C@H](O[C@H]2[C@H](Oc3cccc4c(O)c5c(=O)oc6ccc(C)c7c(=O)oc(c34)c5c67)O[C@H](C)[C@H](O)[C@@H]2O)[C@@H]1O` [chartreusin], the “T/C (%)” value (P-388 leukemia cells; 50 mg/kg/day x 3, suspension in 0.2M Na2HPO4 / N,N-dimethylacetamide (4:1), comparison) is given as 105%, the “antitumorous activity against P-388 leukemia” value (P-388 leukemia) is given as “effective” and the “antitumorous activity against L-1210 leukemia” value (L-1210 leukemia) is given as “effective”. The “antitumorous activity against B-16 melanoma” value (B-16 melanoma) was “effective” and the “antitumorous activity when site of cancer inoculation and site of administration were different” value (cancer) was “not effective at all”.
For `COC1C(O)C(C)OC(OC2C(Oc3cccc4c(OC(=O)CCNC(=O)C(F)(F)F)c5c(=O)oc6ccc(C)c7c(=O)oc(c34)c5c67)OC(C)C3OC(c4ccccc4)OC32)C1O` (stereo not drawn) [Compound No. 28, 6-O-(N-Trifluoroacetyl-β-Alanyl)-3',4'-O-Benzylidene-Chartreusin], the response vs control in vivo at 80 mg/kg (P-388 leukemia cells; [1]) was 193%, the response vs control in vivo at 120 mg/kg (P-388 leukemia cells; Mus musculus, P388, iv, dose h: 120 mg/kg × 3, i.v. on days 1, 5 and 9, BDF1 mice, P-388 i.p., read-out: T/C (%) of MST) was 227% and the LD50 (ddY mice) was no less than 120 mg/kg.
For `CCCC(=O)Oc1c2cccc(OC3OC(C)C4OC(c5ccccc5)OC4C3OC3OC(C)C(O)C(OC)C3O)c2c2oc(=O)c3c(C)ccc4oc(=O)c1c2c43` (centres unmarked) [compound 212, 6-O-(n-butyryl)-3',4'-O-benzylidene-chartreusin], the response vs control in vivo at 80 mg/kg (P-388 leukemia cells; [1]) was 153% and the LD50 (ddY mice) was no less than 80 mg/kg.
In the case of `COC1C(O)C(C)OC(OC2C(Oc3cccc4c(OC(=O)CCNC=O)c5c(=O)oc6ccc(C)c7c(=O)oc(c34)c5c67)OC(C)C3OC(c4ccsc4)OC32)C1O` (centres unmarked) [compound 89], the response vs control in vivo at 80 mg/kg (P-388 leukemia cells; [1]) is reported as 173% and the LD50 (ddY mice) is reported as no less than 80 mg/kg.
`COC1C(O)C(C)OC(OC2C(Oc3cccc4c(OC(=O)CCNC(=O)c5ccccc5)c5c(=O)oc6ccc(C)c7c(=O)oc(c34)c5c67)OC(C)C3OC(c4ccc(Br)cc4)OC32)C1O` (centres unmarked) [compound 124] showed a response vs control in vivo at 80 mg/kg (P-388 leukemia cells; [1]) of 151% and an LD50 (ddY mice) of no less than 80 mg/kg.
